In assay [1] the target is T1, DNA topoisomerase 1 (Homo sapiens) (UniProt P11387).
T1 sequence (whole entry): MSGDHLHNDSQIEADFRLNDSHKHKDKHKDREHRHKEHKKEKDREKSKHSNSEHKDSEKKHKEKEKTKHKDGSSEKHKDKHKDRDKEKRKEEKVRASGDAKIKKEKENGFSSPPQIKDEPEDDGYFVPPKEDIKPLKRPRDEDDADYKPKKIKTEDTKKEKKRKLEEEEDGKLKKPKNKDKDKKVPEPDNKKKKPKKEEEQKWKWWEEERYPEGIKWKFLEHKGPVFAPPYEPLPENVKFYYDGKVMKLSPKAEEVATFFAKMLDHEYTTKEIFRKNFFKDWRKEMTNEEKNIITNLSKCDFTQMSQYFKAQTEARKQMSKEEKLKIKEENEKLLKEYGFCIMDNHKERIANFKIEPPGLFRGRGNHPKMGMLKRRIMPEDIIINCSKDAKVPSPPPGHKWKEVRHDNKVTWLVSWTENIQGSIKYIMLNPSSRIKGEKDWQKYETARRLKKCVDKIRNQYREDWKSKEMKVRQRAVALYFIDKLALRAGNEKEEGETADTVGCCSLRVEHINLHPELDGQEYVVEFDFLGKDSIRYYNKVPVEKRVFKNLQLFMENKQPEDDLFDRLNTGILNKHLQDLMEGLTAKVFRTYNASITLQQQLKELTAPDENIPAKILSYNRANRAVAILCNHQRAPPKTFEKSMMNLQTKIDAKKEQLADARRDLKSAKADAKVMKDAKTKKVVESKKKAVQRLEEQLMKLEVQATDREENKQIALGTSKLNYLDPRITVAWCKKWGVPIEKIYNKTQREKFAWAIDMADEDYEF
The assay can be described thus: Inhibition of human DNA topoisomerase 1 assessed as reduction in pBR322 DNA relaxation upto 100 uM by gel electrophoresis method.

The subject of a further assay is T-24. Put plainly: Antiproliferative activity against human T24 cells assessed as cell growth inhibition by MTT assay. Type of assay: functional, cell-based. (In general: Tetrazolium dyes change colour on reduction, which living cells bring about.)
The species entered for assay [2] is Homo sapiens. Put plainly: Binding affinity to pBR322 DNA (unknown origin) assessed as induced retardation of DNA migration at 20 to 100 uM by gel electrophoresis assay. Conditions: dose 20-100 µM.
In the next assay the test system is CNE-2. The assay can be described thus: Antiproliferative activity against human CNE-2 cells assessed as cell growth inhibition by MTT assay. Type of assay: functional, cell-based.
Assay [3] deals with MGC-803. The assay can be described thus: Antiproliferative activity against human MGC-803 cells assessed as cell growth inhibition by MTT assay. Type of assay: functional, cell-based.
The species entered for assay [4] is Homo sapiens. Put plainly: Binding affinity to pBR322 DNA (unknown origin) assessed as DNA intercalation at 20 to 100 uM by electrophoresis assay. Conditions: dose 20-100 µM.
The next assay deals with A2780. Put plainly: Antiproliferative activity against human A2780 cells assessed as cell growth inhibition by MTT assay. Format: functional, cell-based.
Assay [5] relates to MGC-803. The assay can be described thus: Antitumor activity against human MGC-803 cells xenografted in nude mouse assessed as reduction in tumor weight at 4 mg/kg, ip administrated every other day for 21 days relative to control. Format: functional. The arrangement: scale not given: the % may be the effect or the level left. Conditions: time 21 day. In general terms: A xenograft is tissue or cells of one species grown in another, often human tumour cells in immunodeficient mice.

The test system of assay [6] is MGC-803. Put plainly: Toxicity in nude mouse xenografted with human MGC-803 cells assessed as morphological changes in liver at 8 mg/kg, ip administrated every other day for 21 days. Format: functional, organism-based. Conditions: time 21.0 day.
Assay [7] has as its system MGC-803. Put plainly: Antitumor activity against human MGC-803 cells xenografted in nude mouse assessed as reduction in tumor volume growth rate at 4 mg/kg, ip administrated every other day for 21 days relative to control. Format: functional. The arrangement: scale not given: the % may be the effect or the level left. Conditions: time 21 day.

The source made the active and inactive calls. The rule behind the calls is not given here.

For orientation: IC50 means the point on the concentration scale where inhibition reaches its midpoint. Take `O=C1c2cccc3cc([N+](=O)[O-])cc(c23)C(=O)N1CCNCCN1C(=O)c2cccc3cc([N+](=O)[O-])cc(c23)C1=O`: the inhibition entry in [1] was “inactive”. Moreover, the IC50 turned out to be 3.45 µM in the assay on T-24, 4.51 µM with CNE-2, 14.6 µM in the assay with MGC-803 [3] and 2.79 µM in the assay on A2780. Besides, the result in the assay filed under Homo sapiens [2] and in the assay listed under Homo sapiens [4] was inactive.

With `O=C1c2cccc3c(N4CCC(N5CCCCC5)CC4)c([N+](=O)[O-])cc(c23)C(=O)N1CCNCCN1C(=O)c2cccc3c(N4CCC(N5CCCCC5)CC4)c([N+](=O)[O-])cc(c23)C1=O`, the IC50 in the assay on T-24 was 14.8 µM; in the assay on CNE-2, 9.25 µM; in the assay with MGC-803 [3], greater than 50 µM; with A2780, greater than 50 µM.

With `O=C1c2cccc3c(N4CCCCC4)c([N+](=O)[O-])cc(c23)C(=O)N1CCNCCN1C(=O)c2cccc3c(N4CCCCC4)c([N+](=O)[O-])cc(c23)C1=O`, the IC50 with T-24, with CNE-2, in the assay with MGC-803 [3] and in the assay on A2780 was greater than 50 µM throughout.

Regarding `O=C1c2cccc3c(N4CCOCC4)c([N+](=O)[O-])cc(c23)C(=O)N1CCc1ccc2c(c1)OCO2`, the IC50 in the assay on T-24 was 23.6 µM; with CNE-2, greater than 50 µM; in the assay on MGC-803 [3] it was 23.1 µM; with A2780 it was 28.4 µM.

With `CN(C)CCN1C(=O)c2cccc3cc(N)cc(c23)C1=O` [AMONAFIDE], the half-inhibitory concentration (IC50) in the assay with T-24 was determined as 7.23 µM; in the assay with CNE-2 it was 8.65 µM; in the assay with MGC-803 [3], 5.25 µM; in the assay with A2780 it was 11.7 µM.

Take `CN1CCN(c2c([N+](=O)[O-])cc3c4c(cccc24)C(=O)N(CCNCCN2C(=O)c4cccc5c(N6CCN(C)CC6)c([N+](=O)[O-])cc(c45)C2=O)C3=O)CC1`: the inhibition result in [1] is “inactive”. Besides, the IC50 in the assay with T-24 was found to be 0.65 µM; with CNE-2, 0.34 µM; with MGC-803 [3], 2.05 µM; in the assay with A2780 it was 0.42 µM. Also, the outcome in the assay listed under Homo sapiens [2] and in the assay listed under Homo sapiens [4] was Active.

In the case of `O=C1c2cccc3c(N4CCOCC4)c([N+](=O)[O-])cc(c23)C(=O)N1CCO`, the IC50 in the assay on T-24 turned out to be 9.34 µM; in the assay on CNE-2 it was 16.4 µM; in the assay on MGC-803 [3] it was 11.8 µM; in the assay on A2780, 22.8 µM.

For `CN(C)CCN1C(=O)c2cccc3cc([N+](=O)[O-])cc(c23)C1=O` [MITONAFIDE], the 50% inhibitory concentration (IC50) amounted to 3.25 µM with T-24, 3.42 µM with CNE-2, 3.32 µM in the assay on MGC-803 [3] and 5.22 µM in the assay on A2780. The Activity with MGC-803 [5] was 34.2%; with MGC-803 [6] it was “Toxic”; in the assay on MGC-803 [7], 54.2%.

Regarding `CC(C)(C)OC(=O)N1CCN(c2c([N+](=O)[O-])cc3c4c(cccc24)C(=O)N(CCNCCN2C(=O)c4cccc5c(N6CCN(C(=O)OC(C)(C)C)CC6)c([N+](=O)[O-])cc(c45)C2=O)C3=O)CC1`, the IC50 in the assay with T-24, in the assay with CNE-2, in the assay on MGC-803 [3] and with A2780 was greater than 50 µM each time.
